Data published in the NIST ThermoML archive (doi:10.1021/acs.jced.5b01111).
± gives the expanded uncertainty stated by the source. Values belong to the compound of their own block, whether it stands above or below them.

Test: wn = mass fraction of the nth substance listed
Details: 288.15 K, 100 kPa, Liquid, Pycnometric method

- mass density (w1 = 0.2472): 1168.2 ± 2.9 kg/m3
SMILES: [Cl-].[K+] [potassium chloride] + O

- mass density (w1 = 0.1653): 1122.9 ± 2.6 kg/m3
SMILES: O=P([O-])(O)O.[K+] [monopotassium phosphate] + O

- mass density (w1 = 0.0912): 1075.6 ± 2.4 kg/m3
SMILES: O=S(=O)([O-])[O-].[K+].[K+] [potassium sulfate] + O
